From patent publication US8748423B2, “Compositions and methods for the prevention and treatment of cancer” (Kinex Pharmaceuticals, LLC, priority 2010, dated 2014)
“Also recorded” adds a separate entry of the source. Where two headings read alike, the source gives them in different places.

How the values were obtained:
SW1088 = assay: brain tumor cell line growth inhibition, SW1088; assay type: cell-based; settings: Homo sapiens; SW1088, astrocytoma
Experimental: (§1) These GI50s were determined using standard tumor growth inhibition assays.

SK-N-FI = assay: brain tumor cell line growth inhibition, SK-N-FI; assay type: cell-based; settings: Homo sapiens, neuroblastoma
Experimental: as §1

SK-N-MC = assay: brain tumor cell line growth inhibition, SK-N-MC; assay type: cell-based; settings: Homo sapiens, neuroepithelioma
Experimental: as §1

[1] = system: various brain tumor cell lines; assay: proliferation in various brain tumor cell lines; assay type: cell-based, human and mouse; settings: all brain tumor cell lines evaluated
Experimental: Compound 76 is a synthetic, orally bioavailable, novel small molecule microtubule polymerization inhibitor with very high CNS penetration. The efficacy of Compound 76 as a novel anti-cancer agent is tested directly using mouse model of malignant glioma. Compound 76 is an orally administered tubulin polymerization inhibitor that binds to a novel site on heterodimeric tubulin, and to a novel conformation of the dimer. Compound 76 can inhibit Src signaling in tumors. Compound 76 has been evaluated in various brain tumor cell lines. […] When administered orally to mice at a dose of 10 mg/kg, the ratio of drug levels in the brain compared to plasma levels was 0.76, indicating excellent BBB penetration as in Example 1.
Compound 76 was evaluated in various human and mouse brain tumor cells derived from glioblastoma multiforme, astrocytoma and medulloblastoma. […] When administered to mice Compound 76 penetrated the brain by 76%, thereby successfully addressing the first major challenge in brain cancer drug discovery. Drugs which are used to treat brain tumors often penetrate only 20% or less.

Daoy = assay: brain tumor cell line growth inhibition, Daoy; assay type: cell-based; settings: Homo sapiens, desmoplastic cerebellar medulloblastoma
Experimental: as §1

GL261 = assay: brain tumor cell line growth inhibition, GL261; assay type: cell-based; settings: GL261, mouse glioblastoma
Experimental: as §1

[2] = plasma and brain exposure after single oral dose; assay type: in vivo, Male CD-1 Mice; settings: for Brain Concentrations, Group A, B, C / Plasma Concentrations, Group A, B, C / concentration at 0 h: 0 hr; for Kp: brain and plasma, read-out: AUClast Brain/AUClast Plasma Ratio
Experimental: […] The concentration of Compound 76 was measured in plasma and in brain tissue homogenates.
Plasma concentrations were measured in mice after oral administration. All doses were formulated in purified water. Four groups of male CD-1 mice were dosed after an overnight fast and fed 4 hours post-dose. Dosing was as follows:
Protein was precipitated with 0.25 mL acetonitrile for plasma, 0.25 mL for brain. After centrifugation, supernatant was directly injected into an LC/MS system. The limit of quantitation was 1 ng/mL using a 50 μL aliquot for plasma and a […] aliquot for brain. The standard curve was 1 to 1,000 ng/mL for both plasma and brain.
HPLC conditions were as follows:
• HPLC System: Shimadzu SCL-10 System • Analytical Column: Aquasil C18 5 μm 100×2 mm column. • Column Temperature: Ambient temperature • Autosampler Temperature: Ambient temperature • Mobile Phase • A) 10 mM Ammonium formate in water (pH 4). • B) Acetonitrile. • Flow Rate: 0.6 mL/min • Injection Volume: 2 μL

GL261 glioma [3] = assay: re-challenge of long term survivor mice with s.c. GL261 cells; assay type: in vivo, C57BL/6 mice; settings: 1×10^6 s.c. GL261 cells; mice cured by Compound 76
Excerpt: FIG. 5 is a graph of re-challenge of Compound 76 treated long term survivor mice from FIG. 4B with 1×10^6 s.c. GL261 glioa cells. Age and litter matched controls were implanted.

survivin = assay: additional molecular studies, survivin
LN-18 = assay: brain tumor cell line growth inhibition, LN-18; assay type: cell-based; settings: Homo sapiens; LN-18, glioblastoma; glioma
Experimental: as §1

GL261 glioma [4] = assay: intracranial GL261 glioma survival study; assay type: in vivo, C57BL/6 mice
Experimental: The studies were conducted in C57BL/6 mice. GL261 glioma cells (1×10^5 in 5 μl DMEM) were implanted intracranial coordinates: bregma, lateral 2.0 mm, anterior 1.2 mm, 3.0 mm depth dura. Treatment was initiated 3 days post implantation.
The median survival range and the log-rank (Mantel-Cox) statistical test results comparing the survival distributions of the samples.

U87 = assay: brain tumor cell line growth inhibition, U87; assay type: cell-based; settings: Homo sapiens, U-87 MG; U87, glioblastoma; astrocytoma
Experimental: as §1

[5] = PO 10 mg/kg (Group 3), single values
[6] = PO 50 mg/kg (Group 4), single values
[7] = male, CD-1, mouse, brain, po, 10 mg/kg, PO 10 mg/kg (Group 3), BLQ = 0, read-out: Brain Concentrations, Mean
[8] = male, CD-1, mouse, brain, po, 50 mg/kg, PO 50 mg/kg (Group 4), read-out: Brain Concentrations, Mean
[9] = male, CD-1, mouse, plasma, po, 10 mg/kg, PO 10 mg/kg (Group 3), read-out: Plasma Concentrations, Mean
[10] = male, CD-1, mouse, plasma, po, 50 mg/kg, PO 50 mg/kg (Group 4), read-out: Plasma Concentrations, Mean
[11] = male, CD-1, mouse, po, Brain, single dose of 50 mg/kg (Group 4)
[12] = male, CD-1, mouse, po, Plasma, single dose of 50 mg/kg (Group 4)
[13] = male, CD-1, mouse, Brain, single oral dose of 10 mg/kg
[14] = male, CD-1, mouse, Plasma, single oral dose of 10 mg/kg

Q: With `O=C(Cc1ccc(-c2ccc(N3CCOCC3)cc2)cn1)NCc1cccc(F)c1` [Compound 76] as the compound, how does the IC50 (SW1088) read?
A: The IC50 was 22.1 nM.

Q: What about the IC50 (SK-N-FI) of the same compound?
A: The IC50 was 0.46 nM.

Q: And the IC50 (SK-N-MC)?
A: The IC50 was 0.13 nM.

Q: What about the GI50 [1] of the same compound?
A: The GI50 was less than 55 nM.

Q: And the IC50 (Daoy)?
A: Its IC50 is 54.9 nM.

Q: And the IC50 (GL261)?
A: The IC50 was 8.8 nM.

Q: And the AUClast ([2]; Brain, single dose of 50 mg/kg (Group 4))?
A: The AUClast was 3338 ng·h/g.

Q: And the AUClast ([2]; Brain, single oral dose of 10 mg/kg)?
A: Its AUClast is 656 ng·h/g.

Q: What about the “Brain Concentrations, Group A, B, C” value [2, 5] of the same compound?
A: The value was “BLQ (Below Limit of Quantitation (1 ng/mL))”.

Q: What about the “Plasma Concentrations, Group A, B, C” value [2, 5] of the same compound?
A: Its value is “BLQ (Below Limit of Quantitation (1 ng/mL))”.

Q: What about the “Brain Concentrations, Group A, B, C” value [2, 6] of the same compound?
A: The value was “BLQ (Below Limit of Quantitation (1 ng/mL))”.

Q: What about the “Plasma Concentrations, Group A, B, C” value [2, 6] of the same compound?
A: The value was “BLQ (Below Limit of Quantitation (1 ng/mL))”.

Q: What about the Kp ([2]; male, CD-1, mouse, oral 10 mg/kg) of the same compound?
A: The Kp was 0.76.

Q: And the Kp ([2]; male, CD-1, mouse, oral 50 mg/kg)?
A: The Kp was 0.61.

Q: What about the concentration at 0 h [2, 7] of the same compound?
A: The concentration at 0 h was 0 ng/g.

Q: And the concentration at 0.5 h ([2]; male, CD-1, mouse, brain, po, 10 mg/kg, PO 10 mg/kg (Group 3), 0.5 hr, read-out: Brain Concentrations, Mean)?
A: Its concentration at 0.5 h is 99.8 ng/g.

Q: And the concentration at 1 h ([2]; male, CD-1, mouse, brain, po, 10 mg/kg, PO 10 mg/kg (Group 3), 1 hr, read-out: Brain Concentrations, Mean)?
A: Its concentration at 1 h is 279 ng/g.

Q: And the concentration at 1 h ([2]; male, CD-1, mouse, brain, po, 10 mg/kg, PO 10 mg/kg (Group 3), 1 hr, single values, read-out: Brain Concentrations, Group A, B, C)?
A: Its concentration at 1 h is 228 ng/g.

Q: And the concentration at 2 h ([2]; male, CD-1, mouse, brain, po, 10 mg/kg, PO 10 mg/kg (Group 3), read-out: Brain Concentrations, Mean)?
A: The concentration at 2 h was 175 ng/g.

Q: What about the concentration at 5 h [2, 7] of the same compound?
A: The concentration at 5 h was 31.8 ng/g.

Q: And the concentration at 5 h ([2]; male, CD-1, mouse, brain, po, 10 mg/kg, PO 10 mg/kg (Group 3), single values, read-out: Brain Concentrations, Group A, B, C)?
A: Its concentration at 5 h is 47.5 ng/g.

Q: What about the concentration at 0 h ([2]; male, CD-1, mouse, brain, po, 50 mg/kg, PO 50 mg/kg (Group 4), BLQ = 0, read-out: Brain Concentrations, Mean) of the same compound?
A: The concentration at 0 h was 0 ng/g.

Q: What about the concentration at 0.5 hr ([2]; male, CD-1, mouse, brain, po, 50 mg/kg, PO 50 mg/kg (Group 4), 0.5 hr, read-out: Brain Concentrations, Mean) of the same compound?
A: The concentration at 0.5 hr was 1380 ng/g.

Q: What about the concentration at 1 hr ([2]; male, CD-1, mouse, brain, po, 50 mg/kg, PO 50 mg/kg (Group 4), 1 hr, read-out: Brain Concentrations, Mean) of the same compound?
A: Its concentration at 1 hr is 1100 ng/g.

Q: What about the concentration at 2 h [2, 8] of the same compound?
A: The concentration at 2 h was 758 ng/g.

Q: And the concentration at 5 h [2, 8]?
A: The concentration at 5 h was 207 ng/g.

Q: And the concentration at 0 h ([2]; male, CD-1, mouse, plasma, po, 10 mg/kg, PO 10 mg/kg (Group 3), BLQ = 0, read-out: Plasma Concentrations, Mean)?
A: The concentration at 0 h was 0 ng/mL.

Q: And the concentration at 0.5 h ([2]; male, CD-1, mouse, plasma, po, 10 mg/kg, PO 10 mg/kg (Group 3), 0.5 hr, read-out: Plasma Concentrations, Mean)?
A: Its concentration at 0.5 h is 148 ng/mL.

Q: And the concentration at 1 h ([2]; male, CD-1, mouse, plasma, po, 10 mg/kg, PO 10 mg/kg (Group 3), 1 hr, read-out: Plasma Concentrations, Mean)?
A: Its concentration at 1 h is 426 ng/mL.

Q: What about the concentration at 2 h [2, 9] of the same compound?
A: Its concentration at 2 h is 205 ng/mL.

Q: What about the concentration at 5 h [2, 9] of the same compound?
A: Its concentration at 5 h is 40 ng/mL.

Q: What about the concentration at 0 h ([2]; male, CD-1, mouse, plasma, po, 50 mg/kg, PO 50 mg/kg (Group 4), BLQ = 0, read-out: Plasma Concentrations, Mean) of the same compound?
A: Its concentration at 0 h is 0 ng/mL.

Q: What about the concentration at 0.5 h ([2]; male, CD-1, mouse, plasma, po, 50 mg/kg, PO 50 mg/kg (Group 4), 0.5 hr, read-out: Plasma Concentrations, Mean) of the same compound?
A: Its concentration at 0.5 h is 1800 ng/mL.

Q: What about the concentration at 0.5 h ([2]; male, CD-1, mouse, plasma, po, 50 mg/kg, PO 50 mg/kg (Group 4), 0.5 hr, single values, read-out: Plasma Concentrations, Group A, B, C) of the same compound?
A: The concentration at 0.5 h was 1490 ng/mL.

Q: And the concentration at 1 h ([2]; male, CD-1, mouse, plasma, po, 50 mg/kg, PO 50 mg/kg (Group 4), 1 hr, read-out: Plasma Concentrations, Mean)?
A: Its concentration at 1 h is 2140 ng/mL.

Q: And the concentration at 2 h [2, 10]?
A: The concentration at 2 h was 1300 ng/mL.

Q: What about the concentration at 5 h [2, 10] of the same compound?
A: Its concentration at 5 h is 230 ng/mL.

Q: And the Cmax [2, 11]?
A: Its Cmax is 1380 ng/g.

Q: What about the Tmax [2, 11] of the same compound?
A: Its Tmax is 0.5 h.

Q: What about the AUC(0-t) [2, 12] of the same compound?
A: Its AUC(0-t) is 5440 ng·h/mL.

Q: And the Cmax [2, 12]?
A: The Cmax was 2140 ng/mL.

Q: What about the Tmax [2, 12] of the same compound?
A: Its Tmax is 1 h.

Q: What about the Cmax [2, 13] of the same compound?
A: The Cmax was 279 ng/g.

Q: And the Tmax [2, 13]?
A: The Tmax was 1 h.

Q: What about the AUC(0-t) [2, 14] of the same compound?
A: The AUC(0-t) was 863 ng·h/mL.

Q: And the Cmax [2, 14]?
A: The Cmax was 426 ng/mL.

Q: What about the Tmax [2, 14] of the same compound?
A: Its Tmax is 1 h.

Q: And the “brain penetration from plasma” value ([2]; single oral dose of 10 mg/kg)?
A: The value was 76%.

Q: And the “second GL261 tumor challenge in long term survivors” value (GL261 glioma [3])?
A: The value was “rejected the second GL261 tumor challenge; also recorded: rejected a second GL261 tumor implant challenge”.

Q: What about the “effect on intracellular survivin” value (survivin) of the same compound?
A: Its value is “increased expression and altered the localization of intracellular survivin”.

Q: And the IC50 (LN-18)?
A: Its IC50 is 2.9 nM.

Q: What about the Median survival (GL261 glioma [4]; 15 mg/kg bid oral) of the same compound?
A: Its Median survival is 30.5.

Q: And the “survival Range” value (GL261 glioma [4]; 15 mg/kg bid oral)?
A: Its value is 25-34.

Q: And the Median survival (GL261 glioma [4]; 30 mg/kg bid oral)?
A: The Median survival was 29.

Q: What about the “survival Range” value (GL261 glioma [4]; 30 mg/kg bid oral) of the same compound?
A: The value was 23-32.

Q: What about the IC50 (U87) of the same compound?
A: The IC50 was 9.7 nM.
